According to patent US20130165398A1, “CONCENTRATION-ENHANCING DRINK” (priority 2010, published 2013):
Where “and” joins values, the source holds several entries; their conditions need not be identical. Equal values may be shown once. Entries after “also recorded” stand apart in the source; their conditions may differ.

Key:
[1] = system: 293mitoPARP cells; experiment: Cell viability by MTT assay, 293mitoPARP cells; type: cell-based, human; details: for cell survival with substance as extracellular precursor: NamPRT inhibited by FK866, FIG. 3A
Method: (§4) Inhibitors (2 μm FK866, 2 mM 3-AB, 10 μm NBTI, 2 μm dipyridamol, 2 mM CMP, 25 μm PPADS, 1 mM Ap4A) or metabolites (100 μM NAD^+, 100 μM NAAD, 100 μM NMN, 100 μM NAMN, 100 μM NA, 100 μM NR) were added to the cell culture medium as stated. […] The treatment with inhibitors and metabolites was carried out for 24-48 h before analysis of PAR formation and the viability of the cells (72 h for 293mitoPARP cells, 96 h for HeLa S3 cells and 120 h for HepG2 cells). The viability of the cells was determined by MTT assay.

[2] = system: HeLa S3 cells; experiment: Cell viability by MTT assay, HeLa S3 cells; type: cell-based, human; details: for cell survival with substance as extracellular precursor: FK866, FIG. 3B
Method: as §4

[3] = Triple test method: biomedical test battery (breathing rate, skin conductance level, heart rate), index of physiological/mental stress; type: in vivo, human
Method: (§1) Hereinafter the present invention is tested in the context of the Viewpointsystem® vision analyses, using standardized methods of investigation of the Vienna test system and using biomedical studies for stress research. In this method, in the vision laboratory, the triple test method is used with extremely high accuracy for evaluating psychophysical effects up to the degree of attention (cf. EP 1 300 108 A1, WO 2008/151346 A1).
(§2) 12 subjects were subdivided into 3 groups each of 4 subjects:
(§3) (1) drink according to the invention (150 mg of EGCG/20 mg of NR in 10 ml of H2O; “energy” or “energy-drink” group (2) EGCG alone (150 mg of EGCG; “green tea” group) (3) placebo (H2O and mannitol; “placebo” group)
The subjects were then studied systematically with respect to possible effects using the triple test study method, that is vps vision analyses—Vienna test system—biomedical test battery, in a standardized study, in such a manner that objective, statistically significant statements were made possible on the detection of concentration-enhancing activity of the drink according to the invention.
In parallel thereto, the relevant biomedical characteristics such as skin conductivity, pulse were also detected and evaluated. In total, therefore, in the course of the triple-test studies, for all action-relevant evaluation situations, gaze studies were carried out in the gaze laboratory, the gaze behavior and reaction times were analyzed. The effects on information uptake, including information stress and fatigue, were documented using the standardized gaze methods by raster-analysis programs.
After a baseline measurement, the study follows, wherein, inter alia, the following values are recorded: • heart frequency (HF: number of heart beats/minute) • blood volume pulse (BVP: measure of amount of blood which is pumped through the body per heart beat) • skin conductance value (SCL: skin conductance level/conductivity level, tonic measure, SCR: skin conductance response/phasic measure; reaction to individual stimuli)
In the detailed analyses, at the same time the gaze and biomedical data of the study sequences [reaction test (singular stimuli), determination test (multiple optical, acoustic stimuli), film viewing (real sequences from driver viewpoint and film trailers) and semiotics (animal pictures and logos)] were evaluated. Particular attention was paid to the skin conductance level (SCL), the heart rate (pulse; HR) and the breathing rate (AF).
After the physiological parameters were determined, for each section the statistical parameters mean/standard deviation/min/max/range/85% percentile were determined. In addition, the trend line equations were calculated.
For further statistical detailed evaluation, the 85% percentile values were used and the relative differences were compiled using the before/after relationship. This change was totaled as a dimension number.
After categorization of the subjects into 3 comparison groups, the dimension numbers were summed and represent an index of the physiological/mental stress of the subjects. The lower the number, the “more relaxed” the solving of the tasks by the subjects.

[4] = Triple test method: synchronous gaze studies (Viewpointsystem vision analyses: gaze latencies, blinking, pupil adaptation); type: in vivo, human
Method: as §1, §2, §3
Using this test system, the changes in attention, vision behavior, reaction, activation and stress were determined in the three groups. In this process the real directions of gaze and gaze motions of subjects were determined in the course of the Vienna test system—in the reaction and determination test, and also in considering defined situation sequences (standardized preset image and film sequences with events) and for selected specific suitability tests—filmed and recorded from the respective field of view (cf. EP 1 300 108 A1, WO 2008/151346 A1). […]

[5] = system: NMNAT1; experiment: Expression of NMNAT1 after adding EGCG to human cells; type: cell-based; details: EGCG added to human cells
[6] = system: 293mitoPARP cells; experiment: Mitochondrial NAD+ content by mitoPARP PAR formation, 293mitoPARP cells; type: cell-based, human; details: NamPRT inhibited by FK866, FIG. 3A
Method: (§5) Inhibitors (2 μm FK866, 2 mM 3-AB, 10 μm NBTI, 2 μm dipyridamol, 2 mM CMP, 25 μm PPADS, 1 mM Ap4A) or metabolites (100 μM NAD^+, 100 μM NAAD, 100 μM NMN, 100 μM NAMN, 100 μM NA, 100 μM NR) were added to the cell culture medium as stated. […] The treatment with inhibitors and metabolites was carried out for 24-48 h before analysis of PAR formation and the viability of the cells (72 h for 293mitoPARP cells, 96 h for HeLa S3 cells and 120 h for HepG2 cells). The viability of the cells was determined by MTT assay. 293mitoPARP cells were prepared that express a fusion protein (“mitoPARP”), consisting of EGFP and PARP1cd (poly-ADP-ribose polymerase-1) which was targeted to the mitochondrial matrix. With mitochondrial NAD^+ as substrate, these cells generate protein-bound PAR (protein-bound poly-ADP ribose) constitutively, which is visualized immunochemically. Variations in the extent of the PAR detected thereby reflect changes in the mitochondrial NAD^+ content. Likewise, the transient expression of mitoPARP in HepG2 and HeLa S3 cells was used.

[7] = system: HepG2 cells; details: FK866, FIG. 3C
Method: Inhibitors (2 μm FK866, 2 mM 3-AB, 10 μm NBTI, 2 μm dipyridamol, 2 mM CMP, 25 μm PPADS, 1 mM Ap4A) or metabolites (100 μM NAD^+, 100 μM NAAD, 100 μM NMN, 100 μM NAMN, 100 μM NA, 100 μM NR) were added to the cell culture medium as stated. NR was prepared as described (Dölle et al., Anal, Biochem. 385 (2009), 377-379). The treatment with inhibitors and metabolites was carried out for 24-48 h before analysis of PAR formation and the viability of the cells (72 h for 293mitoPARP cells, 96 h for HeLa S3 cells and 120 h for HepG2 cells). The viability of the cells was determined by MTT assay.

[8] = system: mitochondrial NAD^+; experiment: Mitochondrial NAD+ content by mitoPARP PAR formation, cell line not stated; type: cell-based, human; details: for mitochondrial PAR formation from the extracellular precursor on overexpression of NRK1: FIG. 6; for effect of the inhibitor on NR usage: NR as extracellular precursor, FIG. 4B; for function of NMN as extracellular NAD+ precursor in presence of the inhibitor: plasma membrane nucleoside transporter inhibitor added
[9] = system: HeLa S3 cells; experiment: Mitochondrial NAD+ content by mitoPARP PAR formation, HeLa S3 cells; type: cell-based, human; details: FK866, FIG. 3B
Method: as §5

[10] = system: human cells; experiment: Cell viability by MTT assay, cell line not stated; type: cell-based; details: NPP inhibitor added
[11] = CMP competes with NMN for external 5'-nucleotidase
[12] = semiotics (animal pictures and logos), group sum

Nc1ccn([C@@H]2O[C@H](COP(=O)(O)O)[C@@H](O)[C@H]2O)c(=O)n1 [CMP]
cell viability with NMN as precursor on addition of CMP [1, 11]: decreases the cell viability
cell viability with NMN as precursor on addition of CMP [2, 11]: decreases the cell viability

O=C(O[C@@H]1Cc2c(O)cc(O)cc2O[C@@H]1c1cc(O)c(O)c(O)c1)c1cc(O)c(O)c(O)c1 [EGCG, (2R,3R)-2-(3,4,5-trihydroxyphenyl)-3,4-dihydro-1(2H)-benzopyran-3,5,7-triol 3-(3,4,5-trihydroxybenzoate)]
AF (breathing rate) dimension number, Total ([3]; RT+DT+Film+Animals, group sum): 14.21
HR (heart rate) dimension number, Total ([3]; RT+DT+Film+Animals, group sum): 13.90
SCL (skin conductance level) dimension number, Total ([3]; RT+DT+Film+Animals, group sum): 17.79
dimension number TOTAL ([3]; T1+T2, individual subject, lower = more relaxed, listed as Green tea group): 10.25 and 12.53 and 12.39 and 10.78
dimension number TOTAL, group Mean ([3]; T1+T2, mean of 4 subjects): 11.49
dimension number TOTAL, group Total ([3]; T1+T2, sum of 4 subjects): 45.95
dimension number T1 ([3]; T1: Vienna test system: reaction test/determination test, individual subject, summed relative before/after differences of 85% percentile values, lower = more relaxed, listed as Green tea group): 4.81 and 5.51 and 6.86 and 5.11
dimension number T1, group Mean ([3]; T1: reaction test/determination test, mean of 4 subjects): 5.57
dimension number T1, group Total ([3]; T1: reaction test/determination test, sum of 4 subjects): 22.29
dimension number T2 ([3]; T2: Viewing film sequences/trailers/logos/animals, individual subject, lower = more relaxed, listed as Green tea group): 5.45 and 7.02 and 5.53 and 5.67
dimension number T2, group Mean ([3]; T2: film sequences/trailers/logos/animals, mean of 4 subjects): 5.92
dimension number T2, group Total ([3]; T2: film sequences/trailers/logos/animals, sum of 4 subjects): 23.67
HR (heart rate) dimension number, DT ([3]; determination test, group sum): 3.44
SCL (skin conductance level) dimension number, DT ([3]; determination test, group sum): 4.17
AF (breathing rate) dimension number, DT ([3]; determination test, group sum, listed as Group 3): 3.63 and 3.67
AF (breathing rate) dimension number, Film ([3]; film viewing, group sum): 3.90
HR (heart rate) dimension number, Film ([3]; film viewing, group sum): 3.61
SCL (skin conductance level) dimension number, Film ([3]; film viewing, group sum): 4.90
AF (breathing rate) dimension number, RT ([3]; reaction test, group sum): 3.58
HR (heart rate) dimension number, RT ([3]; reaction test, group sum): 3.42
SCL (skin conductance level) dimension number, RT ([3]; reaction test, group sum): 4.05
AF (breathing rate) dimension number, Animals [3, 12]: 3.10
HR (heart rate) dimension number, Animals [3, 12]: 3.49
SCL (skin conductance level) dimension number, Animals [3, 12]: 4.67
performance ability for the problem solutions (ability to be stressed) ([3]; sum parameters, tendency, especially in the active test sequences): higher performance ability
number of blinks ([4]; all test methods, compared with Energy group): markedly lower
enhancement of gaze latencies in the after state ([4]; real film sequences, before/after): low enhancements
increase of expression of NMNAT1 [5]: 40%

O=C(/C=C/c1cccnc1)NCCCCC1CCN(C(=O)c2ccccc2)CC1 [FK866]
effect of FK866 on cell viability ([1]; FIG. 3A): cell death
effect of FK866 on cell viability ([2]; FIG. 3B): cell death

O=C(O)c1cccnc1 [NA, nicotinic acid]
cell survival with substance as extracellular precursor [1]: able to restore
mitochondrial NAD+ content/formation with substance as extracellular precursor [6]: able to restore
cell survival with substance as extracellular precursor [2]: restoration of survival
generation of mitochondrial NAD+ with substance as extracellular precursor [7]: not able to provide support
survival/viability of the cell with substance as extracellular precursor [7]: not able to provide support

NC(=O)c1ccc[n+]([C@@H]2O[C@H](COP(=O)([O-])OP(=O)(O)OC[C@H]3O[C@@H](n4cnc5c(N)ncnc54)[C@H](O)[C@@H]3O)[C@@H](O)[C@H]2O)c1 [NAD^+, nicotinamide adenine dinucleotide]
mitochondrial PAR formation from the extracellular precursor on overexpression of NRK1 [8]: considerably improved

O=C(O)c1ccc[n+]([C@@H]2O[C@H](COP(=O)(O)O)[C@@H](O)[C@H]2O)c1 [NAMN, nicotinic acid mononucleotide]
mitochondrial NAD+ generation of NAMN in presence of dipyridamol and NBTI ([8]; compared with NMN, FIG. 4A): sensitive to these inhibitors, although less strongly
cell survival with substance as extracellular precursor [1]: able to restore; also recorded: protect
mitochondrial NAD+ content/formation with substance as extracellular precursor [6]: able to restore; also recorded: support mitochondrial NAD^+ formation
cell survival with substance as extracellular precursor [2]: restoration of survival; also recorded: protect
mitochondrial NAD+ formation with substance as extracellular precursor [9]: support mitochondrial NAD^+ formation

O=[N+]([O-])c1ccc(CSc2ncnc3c2ncn3[C@@H]2O[C@H](CO)[C@@H](O)[C@H]2O)cc1 [NBTI]
effect of the inhibitor on NR usage [8]: inhibit the NR usage
function of NMN as extracellular NAD+ precursor in presence of the inhibitor ([8]; FIG. 4A): lost its function

NC(=O)c1ccc[n+]([C@@H]2O[C@H](COP(=O)([O-])O)[C@@H](O)[C@H]2O)c1 [NMN, nicotinamide mononucleotide]
mitochondrial PAR formation from the extracellular precursor on overexpression of NRK1 [8]: dramatic increase
cell survival with substance as extracellular precursor [1]: able to restore; also recorded: protect
mitochondrial NAD+ content/formation with substance as extracellular precursor [6]: able to restore; also recorded: support mitochondrial NAD^+ formation
cell survival with substance as extracellular precursor [2]: restoration of survival; also recorded: protect
mitochondrial NAD+ formation with substance as extracellular precursor [9]: support mitochondrial NAD^+ formation

Cc1nc(N=Nc2ccc(S(=O)(=O)O)cc2S(=O)(=O)O)c(COP(=O)(O)O)c(C=O)c1O [PPADS]
restoration of the mitochondrial NAD+ pool with NAD+ as extracellular precursor ([8]; NPP inhibitor added, cell line not stated): prevents the restoration
survival of the cell with NAD+ as extracellular precursor [10]: prevents the restoration

OCCN(CCO)c1nc(N2CCCCC2)c2nc(N(CCO)CCO)nc(N3CCCCC3)c2n1 [dipyridamol]
effect of the inhibitor on NR usage [8]: inhibit the NR usage
function of NMN as extracellular NAD+ precursor in presence of the inhibitor ([8]; FIG. 4A): lost its function
